A short description of experiment [1]: Non-nucleoside inhibition of NS5B polymerase in HCV genotype 1a by Taqman probe based RT-PCR analysis. A general note: In qPCR the cycle at which signal appears reflects the starting amount.
A short description of experiment [2]: Non-nucleoside inhibition of NS5B polymerase in HCV genotype 1b by Taqman probe based RT-PCR analysis.
Experiment [3] in a line: Non-nucleoside inhibition of NS5B polymerase in HCV genotype 2a by Taqman probe based RT-PCR analysis.
Experiment [4] in a line: Non-nucleoside inhibition of NS5B polymerase in HCV genotype 2b by Taqman probe based RT-PCR analysis.
Experiment [5] can be described thus: Non-nucleoside inhibition of NS5B polymerase in HCV genotype 3a by Taqman probe based RT-PCR analysis.
Experiment [6] in a line: Non-nucleoside inhibition of NS5B polymerase in HCV genotype 4a by Taqman probe based RT-PCR analysis.
Experiment [7] is described as follows: Non-nucleoside inhibition of NS5B polymerase C316Y mutant in HCV genotype 1a by Taqman probe based RT-PCR analysis.
Experiment [8] is described as follows: Non-nucleoside inhibition of NS5B polymerase S365A mutant in HCV genotype 1a by Taqman probe based RT-PCR analysis.

The structures appear in SMILES notation.

Usually EC50 stands for the concentration giving half of the maximal effect. Higher therefore signals lower potency in that assay. Take `CNC(=O)c1c(-c2ccc(F)cc2)oc2cc(N(C)S(C)(=O)=O)c(-c3cc(OC)c4nnn(Cc5ccc(F)cc5)c(=O)c4c3)cc12` [US9364482, 71]: the EC50 in experiment [1] is 0.8 nM; in experiment [2] it was 1.6 nM; in experiment [3] it was 3.9 nM; in experiment [4], 3.1 nM; in experiment [5] it was 0.7 nM; in experiment [6], 0.4 nM. Besides, the half-maximal effective concentration (EC50) in experiment [7] was found to be 4.6 nM; in experiment [8], 12 nM.
For `CNC(=O)c1c(-c2ccc(F)cc2)oc2cc(N(C)S(C)(=O)=O)c(-c3cc4c(=O)n(Cc5ccc(F)cc5)nnc4cc3C)cc12` [US9364482, 72], the EC50 in experiment [1] was 2.3 nM; in experiment [2], 4.4 nM; in experiment [3], 6.6 nM; in experiment [4], 4.7 nM; in experiment [5], 1.1 nM; in experiment [6], 1 nM. The EC50 was determined as 6.2 nM in experiment [7] and 16 nM in experiment [8].
`CNC(=O)c1c(-c2ccc(F)cc2)oc2cc(N(C)S(C)(=O)=O)c(-c3cc4c(=O)n(Cc5ccc(F)cc5)nnc4cc3Cl)cc12` [US9364482, 73]: the EC50 in experiment [1] worked out at 3 nM; in experiment [2] it was 5.5 nM; in experiment [3], 15 nM; in experiment [4], 8.8 nM; in experiment [5] it was 1.5 nM; in experiment [6], 1 nM. The EC50 in experiment [7] worked out at 12 nM; in experiment [8], 42 nM.
With `CNC(=O)c1c(-c2ccc(F)cc2)oc2cc(N(C)S(C)(=O)=O)c(-c3cc(C)c4nnn(Cc5ccc(F)cc5)c(=O)c4c3)cc12` [US9364482, 74], the EC50 in experiment [1] was 1.8 nM; in experiment [2], 3.3 nM; in experiment [3], 6.1 nM; in experiment [4] it was 6.8 nM; in experiment [5], 1.4 nM; in experiment [6] it was 0.8 nM. The EC50 in experiment [7] is 29 nM; in experiment [8], 120 nM.

Values taken from BindingDB's records for doi:10.1016/j.bmcl.2020.127004 (Merck, 2020).
